From patent US10975068B2, “6-aminopyridin-3-yl thiazoles as modulators of RORγT” (Janssen Pharmaceutica NV, priority 2016, dated 2021)
Where two headings read alike, the source gives them in different places.

Legend:
[1] = target: human RORγt ligand binding domain (RORγt LBD) (Homo sapiens (Human), UniProt P51449); experiment: RORγt ThermoFluor® assay (thermal shift binding); settings: read-out: ThermoFluor® Assay, Kd
Method in brief: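 Binding was inferred from thermal stabilisation (ΔTm) of the E. coli-expressed RORγt LBD (0.065 mg/mL), monitored by 1,8-ANS (60 μM) emission at 500 nm during a 1 °C/min ramp. Buffer was Hepes 100 mM pH 7.0 with NaCl, GSH and Tween-20.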

full-length human RORγt = full-length human RORγt (Homo sapiens (Human), UniProt P51449); experiment: RORγt (full-length human) reporter assay, Conditions B or C; assay type: cell-based; settings: for RORγt (FL) Reporter Assay B or C, % inhibition (value marked *): marked *: footnote not given; for inhibition at 6 µM: read-out: RORγt (FL) Reporter Assay B or C, % inhibition @ 6 μM, Conditions B or C; for inhibition at 3 µM: at 3 μM compound concentration, read-out: RORγt (FL) Reporter Assay B or C, % inhibition
Method in brief: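 Readout is dual luciferase: firefly (GAL4-driven) normalized to DMSO-only and saturating-reference controls, then to CMV-Renilla. Full-length human RORγt fused to GAL4-DBD was transiently expressed in HEK293T; compound exposure ran overnight (16-20 h) starting 4-6 h after transfection, final FBS 1.3%, DMSO 0.1%.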

[2] = Conditions B or C, read-out: RORγt (FL) Reporter Assay B or C, IC50
[3] = read-out: RORγt (FL) Reporter Assay B or C, IC50

Chain of human RORγt ligand binding domain (RORγt LBD) (P51449 other isoform, or with tags, fused parts or gaps): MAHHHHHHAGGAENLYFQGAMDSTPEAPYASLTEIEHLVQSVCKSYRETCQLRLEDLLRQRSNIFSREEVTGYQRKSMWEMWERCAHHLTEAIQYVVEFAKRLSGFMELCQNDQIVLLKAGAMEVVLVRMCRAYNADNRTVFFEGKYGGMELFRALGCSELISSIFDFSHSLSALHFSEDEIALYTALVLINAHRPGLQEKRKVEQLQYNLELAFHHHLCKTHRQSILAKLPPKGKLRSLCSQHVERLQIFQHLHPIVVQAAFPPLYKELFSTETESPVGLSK
Chain of full-length human RORγt (P51449 other isoform, or with tags, fused parts or gaps): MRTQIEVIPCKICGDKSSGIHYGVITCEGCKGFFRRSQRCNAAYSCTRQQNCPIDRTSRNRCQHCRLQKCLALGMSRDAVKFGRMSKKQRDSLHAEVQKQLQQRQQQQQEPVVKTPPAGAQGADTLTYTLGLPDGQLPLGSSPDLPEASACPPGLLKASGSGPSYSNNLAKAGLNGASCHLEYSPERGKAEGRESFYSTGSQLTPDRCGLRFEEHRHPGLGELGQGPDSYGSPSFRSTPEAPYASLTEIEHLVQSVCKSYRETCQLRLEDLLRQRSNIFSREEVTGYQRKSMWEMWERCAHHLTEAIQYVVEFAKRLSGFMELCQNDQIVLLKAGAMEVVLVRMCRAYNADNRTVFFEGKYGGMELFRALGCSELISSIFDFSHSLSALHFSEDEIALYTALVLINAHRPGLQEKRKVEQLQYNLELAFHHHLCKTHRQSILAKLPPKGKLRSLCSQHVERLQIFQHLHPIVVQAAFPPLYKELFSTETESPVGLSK

C[C@H]1CCCN1C(=O)c1nc(C(=O)NCC(C)(C)O)sc1-c1cnc(NCC(C)(C)C(F)(F)F)cc1C(F)(F)F [Example 120, (S)—N-(2-Hydroxy-2-methylpropyl)-4-(2-methylpyrrolidine-1-carbonyl)-5-(6-((3,3,3-trifluoro-2,2-dimethylpropyl)amino)-4-(trifluoromethyl)pyridin-3-yl)thiazole-2-carboxamide]
Kd [1]: 1.7 nM | RORγt (FL) Reporter Assay B or C, % inhibition (value marked *) (full-length human RORγt; Conditions B or C): 103* % | IC50 (full-length human RORγt; [2]): 0.026 µM

C[C@H](Nc1cc(C(F)F)c(-c2sc(C(=O)NCC(C)(C)O)nc2C(=O)N2CCC[C@@H]2C)cn1)C1CC1 [Example 43, 5-(6-(((S)-1-Cyclopropylethyl)amino)-4-(difluoromethyl)pyridin-3-yl)-N-(2-hydroxy-2-methylpropyl)-4-((S)-2-methylpyrrolidine-1-carbonyl)thiazole-2-carboxamide]
Kd [1]: 4.9 nM | IC50 (full-length human RORγt; [2]): 0.022 µM | inhibition at 6 µM (full-length human RORγt): 107%

C[C@H]1CCCN1C(=O)c1nc(C(=O)NCC(C)(C)O)sc1-c1cnc(N[C@@H]2CCCCC2(F)F)cc1C(F)(F)F (relative stereo) [Example 35, 5-(6-(((R*)-2,2-Difluorocyclohexyl)amino)-4-(trifluoromethyl)pyridin-3-yl)-N-(2-hydroxy-2-methylpropyl)-4-((S)-2-methylpyrrolidine-1-carbonyl)thiazole-2-carboxamide]
Kd [1]: 3.9 nM | IC50 (full-length human RORγt; [2]): 0.02 µM | inhibition at 6 µM (full-length human RORγt): 114%

CC[C@H](Nc1cc(C(F)F)c(-c2sc(C(=O)N[C@@H]3COC[C@@H]3O)nc2C(=O)N2CCC[C@@H]2C)cn1)C(F)(F)F (single isomer, unassigned) [Example 162, 5-(4-(Difluoromethyl)-6-(((S)-1,1,1-trifluorobutan-2-yl)amino)pyridin-3-yl)-N-((3R*,4R*)-4-hydroxytetrahydrofuran-3-yl)-4-((S)-2-methylpyrrolidine-1-carbonyl)thiazole-2-carboxamide]
Kd [1]: 9.5 nM | RORγt (FL) Reporter Assay B or C, % inhibition (value marked *) (full-length human RORγt; Conditions B or C): 104* % | IC50 (full-length human RORγt; [2]): 0.031 µM

CC[C@H](CO)NC(=O)c1nc(C(=O)N2CCC[C@@H]2C)c(-c2cnc(N[C@@H](C)C(F)(F)F)cc2C(F)F)s1 [Example 408, 5-[4-(Difluoromethyl)-6-[[(1S)-2,2,2-trifluoro-1-methyl-ethyl]amino]-3-pyridyl]-N-[(1R)-1-(hydroxymethyl)propyl]-4-[(2S)-2-methylpyrrolidine-1-carbonyl]thiazole-2-carboxamide]
Kd [1]: 3.8 nM | inhibition at 3 µM (full-length human RORγt): 83% | IC50 (full-length human RORγt; [3]): 0.073 µM

C[C@H]1CC(F)(F)CN1C(=O)c1nc(C(=O)NCC(C)(C)O)sc1-c1cnc(NC2CCCC2)cc1C(F)F [Example 44, (S)-5-(6-(Cyclopentylamino)-4-(difluoromethyl)pyridin-3-yl)-4-(4,4-difluoro-2-methylpyrrolidine-1-carbonyl)-N-(2-hydroxy-2-methylpropyl)thiazole-2-carboxamide]
Kd [1]: 2.5 nM | IC50 (full-length human RORγt; [2]): 0.02 µM | inhibition at 6 µM (full-length human RORγt): 111%

C[C@H]1CCCN1C(=O)c1nc(C(=O)NC2CCC2O)sc1-c1cnc(NC(C)(C)C)cc1C(F)(F)F (stereo partly drawn) [Example 369, 5-(6-(tert-Butylamino)-4-(trifluoromethyl)pyridin-3-yl)-N-(trans-2-hydroxycyclobutyl)-4-((S)-2-methylpyrrolidine-1-carbonyl)thiazole-2-carboxamide]
Kd [1]: 0.7 nM | inhibition at 3 µM (full-length human RORγt): 106% | IC50 (full-length human RORγt; [3]): 0.0066 µM

C[C@H](Nc1cc(C(F)F)c(-c2sc(C(=O)NC3CCC3O)nc2C(=O)N2C3CCC2CC3)cn1)C(F)(F)F (stereo partly drawn) [Example 290, 4-((1s,4s)-7-Azabicyclo[2.2.1]heptane-7-carbonyl)-5-(4-(difluoromethyl)-6-(((S)-1,1,1-trifluoropropan-2-yl)amino)pyridin-3-yl)-N-(-trans-2-hydroxycyclobutyl)thiazole-2-carboxamide]
Kd [1]: 6.3 nM | inhibition at 3 µM (full-length human RORγt): 103% | IC50 (full-length human RORγt; [3]): 0.0065 µM

CCC(C)(C)Nc1cc(C(F)(F)F)c(-c2sc(C(=O)NCC(C)(C)O)nc2C(=O)N2C3CCC2CC3)cn1 [Example 98, 4-((1s,4s)-7-Azabicyclo[2.2.1]heptane-7-carbonyl)-N-(2-hydroxy-2-methylpropyl)-5-(6-(tert-pentylamino)-4-(trifluoromethyl)pyridin-3-yl)thiazole-2-carboxamide]
Kd [1]: 0.41 nM | RORγt (FL) Reporter Assay B or C, % inhibition (value marked *) (full-length human RORγt; Conditions B or C): 110* % | IC50 (full-length human RORγt; RORγt (FL) Reporter Assay B or C, IC50 (μM), Conditions B or C): 0.0096 µM

CC[C@H](Nc1cc(C(F)F)c(-c2sc(C(=O)N[C@H](C)[C@@H](C)O)nc2C(=O)N2CCC[C@@H]2C)cn1)C(F)(F)F (relative stereo) [Example 216, 5-(4-(Difluoromethyl)-6-(((S)-1,1,1-trifluorobutan-2-yl)amino)pyridin-3-yl)-N-((2R*,3R*)-3-hydroxybutan-2-yl)-4-((S)-2-methylpyrrolidine-1-carbonyl)thiazole-2-carboxamide]
Kd [1]: 4.1 nM | RORγt (FL) Reporter Assay B or C, % inhibition (value marked *) (full-length human RORγt; Conditions B or C): 96* % | IC50 (full-length human RORγt; [2]): 0.0095 µM

CC[C@H](Nc1cc(C(F)(F)F)c(-c2sc(C(=O)N[C@@H]3COC[C@H]3O)nc2C(=O)N2CCC[C@@H]2C)cn1)C(F)(F)F [Example 170, N-((3R,4S)-4-Hydroxytetrahydrofuran-3-yl)-4-((2S)-2-methylpyrrolidine-1-carbonyl)-5-(4-(trifluoromethyl)-6-(((1S)-1-(trifluoromethyl)propyl)amino)-3-pyridyl)thiazole-2-carboxamide]
Kd [1]: 1.9 nM | RORγt (FL) Reporter Assay B or C, % inhibition (value marked *) (full-length human RORγt; Conditions B or C): 101* % | IC50 (full-length human RORγt; [2]): 0.024 µM

C[C@H]1CCCN1C(=O)c1nc(C(=O)NC[C@@H](O)CO)sc1-c1cnc(NC(C)(C)C)cc1C(F)(F)F [Example 345, 5-[6-(tert-Butylamino)-4-(trifluoromethyl)-3-pyridyl]-N-[(2R)-2,3-dihydroxypropyl]-4-[(2S)-2-methylpyrrolidine-1-carbonyl]thiazole-2-carboxamide]
Kd [1]: 16 nM | inhibition at 3 µM (full-length human RORγt): 111% | IC50 (full-length human RORγt; [3]): 0.063 µM

CC[C@H](Nc1cc(C(F)F)c(-c2sc(C(=O)N[C@H](C)C(C)(C)O)nc2C(=O)N2CCC[C@@H]2C)cn1)C(F)(F)F [Example 267, 5-[4-(Difluoromethyl)-6-[[(1S)-1-(trifluoromethyl)propyl]amino]-3-pyridyl]-N-[(1R)-2-hydroxy-1,2-dimethyl-propyl]-4-[(2S)-2-methylpyrrolidine-1-carbonyl]thiazole-2-carboxamide]
Kd [1]: 3.3 nM | inhibition at 3 µM (full-length human RORγt): 102% | IC50 (full-length human RORγt; [3]): 0.047 µM

C[C@H]1CCCCN1C(=O)c1nc(C(=O)NC2CCS(=O)(=O)CC2)sc1-c1cnc(NC2CCCC2)cc1C(F)(F)F [Example 28, (S)-5-(6-(Cyclopentylamino)-4-(trifluoromethyl)pyridin-3-yl)-N-(1,1-dioxidotetrahydro-2H-thiopyran-4-yl)-4-(2-methylpiperidine-1-carbonyl)thiazole-2-carboxamide]
Kd [1]: 0.17 nM | IC50 (full-length human RORγt; [2]): 0.014 µM | inhibition at 6 µM (full-length human RORγt): 123%

C[C@H](Nc1cc(C(F)F)c(-c2sc(C(=O)N[C@H]3CC[C@H]3O)nc2C(=O)N2CCC[C@@H]2C)cn1)C(F)(F)F (relative stereo) [Example 390, 5-(4-(Difluoromethyl)-6-(((S)-1,1,1-trifluoropropan-2-yl)amino)pyridin-3-yl)-N-((1S*,2R*)-2-hydroxycyclobutyl)-4-((S)-2-methylpyrrolidine-1-carbonyl)thiazole-2-carboxamide]
Kd [1]: 12 nM | inhibition at 3 µM (full-length human RORγt): 99% | IC50 (full-length human RORγt; [3]): 0.028 µM

C[C@H](Nc1cc(C(F)(F)F)c(-c2sc(C(=O)NCC(C)(C)O)nc2C(=O)N2CCC(F)CC2)cn1)C1CC1 [Example 30, (S)-5-(6-((1-Cyclopropylethyl)amino)-4-(trifluoromethyl)pyridin-3-yl)-4-(4-fluoropiperidine-1-carbonyl)-N-(2-hydroxy-2-methylpropyl)thiazole-2-carboxamide]
Kd [1]: 2.8 nM | IC50 (full-length human RORγt; [2]): 0.02 µM | inhibition at 6 µM (full-length human RORγt): 104%

CC(C)(C)Nc1cc(C(F)F)c(-c2sc(C(=O)N[C@@H]3CCC[C@H]3O)nc2C(=O)N2C3CCC2CC3)cn1 [Example 434, 4-((1s,4s)-7-Azabicyclo[2.2.1]heptane-7-carbonyl)-5-[6-(tert-butylamino)-4-(difluoromethyl)-3-pyridyl]-N-[(1R,2R)-2-hydroxycyclopentyl]thiazole-2-carboxamide]
Kd [1]: 0.63 nM | IC50 (full-length human RORγt; RORγt (FL) Reporter Assay B or C, IC50): 0.011 µM | inhibition at 3 µM (full-length human RORγt): 103%

C[C@H]1CCCN1C(=O)c1nc(C(=O)NC(C)(C)C(C)(C)O)sc1-c1cnc(NC(C)(C)C)cc1C(F)(F)F [Example 342, 5-[6-(tert-Butylamino)-4-(trifluoromethyl)-3-pyridyl]-N-(2-hydroxy-1,1,2-trimethyl-propyl)-4-[(2S)-2-methylpyrrolidine-1-carbonyl]thiazole-2-carboxamide]
Kd [1]: 5.7 nM | inhibition at 3 µM (full-length human RORγt): 103% | IC50 (full-length human RORγt; [3]): 0.04 µM

C[C@H](CO)NC(=O)c1nc(C(=O)N2C3CCC2CC3)c(-c2cnc(N[C@@H](C)C(F)(F)F)cc2C(F)F)s1 [Example 226, 4-((1s,4s)-7-Azabicyclo[2.2.1]heptane-7-carbonyl)-5-(4-(difluoromethyl)-6-(((1S)-2,2,2-trifluoro-1-methyl-ethyl)amino)-3-pyridyl)-N-((1R)-2-hydroxy-1-methyl-ethyl)thiazole-2-carboxamide]
Kd [1]: 14 nM | RORγt (FL) Reporter Assay B or C, % inhibition (value marked *) (full-length human RORγt; Conditions B or C): 94* % | IC50 (full-length human RORγt; [2]): 0.14 µM
